Reference: US12083091B2, “Inhibitors of glucosylceramide degradation in the treatment of diseases of the motor units” (priority 2016, dated 2024)

Experiments:
[1] = tested on: muscle and spinal transcriptomes of SOD1 mice; test: Muscle and spinal transcriptomes of SOD1 mice after CBE treatment (GO biological functions of restored genes); format: in vivo; settings: spinal cord and muscle
[2] = tested on: non-transgenic mice; test: Sciatic nerve injury (crush) in non-transgenic mice: functional recovery and re-innervation; format: in vivo
Method: Sciatic Nerve Injury: Peripheral nerve injury was performed in order to induce muscle denervation and axonal regeneration. Non-transgenic mice were anesthetized with ketamine chlorohydrate (100 mg/kg) and xylazine (5 mg/kg). The sciatic nerve was exposed at mid-thigh level and crushed with fine forceps for 30 s. The skin incision was sutured, and mice were allowed to recover. The hind limb, contralateral to the lesion, served as control. Mice were treated with CBE (10 mg/kg/d) for 12 days, or with ambroxol (120-150 mg/kg/day) for 10 days, starting the day before surgery. Mice were followed on a daily basis. Body mass, muscle strength of individual hind limbs (mean of three tests was recorded), and locomotor profile (catwalk, Noldus) were analyzed.
Here, we sought to determine the effect of CBE on the motor recovery after nerve injury in non-transgenic mice. CBE was administrated on a daily basis (10 mg/kg/day), from […] until the end of the study, 12 days after injury.

[3] = tested on: GCase; test: Total GCase activity in the spinal cord after CBE treatment; format: in vivo, mice; settings: CBE 10 mg/kg/day, intraperitoneal
[4] = tested on: non-transgenic mice; settings: mouse, in vivo
[5] = tested on: SOD1 mice; test: SOD1(G86R) mice, animal model of ALS: disease onset, motor function, motor unit histology, survival; format: in vivo
Method: Ambroxol was given orally in the drinking water. […] Non-transgenic littermates served as controls. […] Average speed, paw swing and stride length were measured. […] Non-transgenic littermates served as controls.
Spinal cord: Lumbar spinal cord fixed in paraformaldehyde 4% were used for studying the distribution of GM1a around motor neurons. Coronal section 40 μm thick were realized with a vibratome and were stained with an anti-[…] (1/100, Millipore, France) and an alexa594 conjugated goat (1/200, Jackson) antibodies. GM1a was detected with the cholera toxin sub-unit beta coupled with an Allexa488 dye (1/200, ThermoFisher). Fluorescence intensity of GM1a was calculated with an image processing program (ImageJ). For motor neuron couting, all neurons located in the ventral horn, that were >400 μm^2 in size and ChAT positive were considered as alpha motor neurons. Six sections of spinal cord that were apart over a length of 0.24 mm were counted.
Muscle bundles: Tibialis anterior muscles fixed in paraformaldehyde 4% were dissected into bundles under a binocular microscope. Bundles were collected from at least three different parts of the muscle. Acetylcholine receptors in the postsynaptic apparatus of neuromuscular junctions were labeled with rhodamine-conjugated α-bungarotoxin (Sigma-Aldrich). Immunofluorescent labeling of nerve terminals was performed with a rabbit polyclonal anti-synaptophysin antibody diluted 1/200 (Abcam, Cambridge, UK), and Alexa conjugated goat anti-rabbit diluted 1/500 (Jackson). Neuromuscular junction integrity was assessed by studying the colocalization of synaptophysin and bungarotoxin signal. […].
Coronal muscle sections: Twenty-micrometer sections were obtained by cutting isopentane fresh-frozen tibialis anterior muscles perpendicular to the muscle axis with a cryostat at −20° C. (Leica, Nanterre, France). Acetylcholine receptors in the postsynaptic apparatus of neuromuscular junctions were labeled with rhodamine-conjugated α-bungarotoxin (Sigma-Aldrich). GM1a distribution was labeled with the cholera toxin sub-unit beta coupled with an Allexa488 dye (1/200, ThermoFisher).

[6] = tested on: co-culture of spinal explants and myoblasts; test: Co-culture of spinal explants and myoblasts: neurite network / area of innervation; format: cell-based; settings: ambroxol 100 μM in culture medium
Method: We next sought to determine whether another inhibitor of GlcCer degradation could support axonal plasticity and improve the phenotype of SOD1 mice. We used ambroxol, which is an inhibitor of GBA2 activity (Narita, A. et al. Ambroxol chaperone therapy for neuronopathic Gaucher disease: A pilot study. Ann. Clin. Transl. Neurol. 3, 200-215 (2016)). First, ambroxol (100 μM) was added to the culture medium of a co-culture of spinal explants and myoblasts. […] Next, ambroxol was given per os to SOD1 mice (120-150 mg/kg/day) from day 75 to day 95. […] In a second cohort of mice, the treatment was initiated at disease onset to study ambroxol's effect on late disease stage and survival. […] Next, ambroxol was given to mice subjected to sciatic nerve injury in order to determine its effects on peripheral nerve regeneration.

[7] = CBE 10 mg/kg/day, 12 days after injury
[8] = CBE 10 mg/kg/day, until 12 days after injury, vs placebo
[9] = ambroxol 120-150 mg/kg/day for 10 days
[10] = ambroxol, second cohort, treatment initiated at disease onset

## OC1C(O)C(O)C2OC2C1O (centres unmarked) [CBE, 1,2-anhydro-myo-inositol]
[1]
  global transcriptomic deregulations in SOD1 mice: partially corrected
[2]; [7]
  locomotor profile of the injured paw (contact area, hindlimb step cycle): closer to the contralateral side
  muscle fibrillation at sacrifice: less muscle fibrillation
[2]; [8]
  muscle strength recovery after sciatic nerve injury: occurred faster, by several days
  time to toe spreading after sciatic nerve injury: occurred faster, by several days
[3]
  GCase activity in the spinal cord: decrease
[4]
  loss of motor function in non-transgenic mice: without inducing loss of motor function
  side effects (body mass and muscle strength evolution upon treatment): does not induce side effects
[5]; CBE 10 mg/kg/day i.p., 95 days of age
  fibrillation events (electromyogram), sign of muscle denervation, vs SOD1 placebo group: less frequently detected
[5]; CBE 10 mg/kg/day i.p., 95 days of age, tibialis anterior
  number of fully innervated NMJs: comparable to wild type and significantly higher to SOD1 mice receiving the placebo
[5]; CBE 10 mg/kg/day i.p., 95 days of age, placebo SOD1 almost 60% loss
  loss of large motor neurons in lumbar spinal cord compared to wild type: 30%
[5]; CBE 10 mg/kg/day i.p., SOD1 mice
  presence of axonal GM1a at presynaptic axons of NMJs: clearly detectable
[5]; CBE 10 mg/kg/day i.p., SOD1 mice at 95 days of age
  development of locomotor impairments (average speed, stride length, paw swing; catwalk): completely prevented
[5]; CBE 10 mg/kg/day i.p., from 75 to 95 days of age
  delay of disease onset (onset of muscle strength loss) compared to the placebo group: 6 days
[5]; CBE 10 mg/kg/day i.p., spinal cord ventral horn
  astrocyte activation (GFAP staining fluorescence intensity): no influence

## Nc1c(Br)cc(Br)cc1CN[C@H]1CC[C@H](O)CC1 [ambroxol, trans-4-(2-Amino-3,5-dibrombenzylamino)-cyclohexanol]
[6]
  neurite network (total area of innervation) of co-culture: improved
[2]; [9]
  muscle strength of ipsilateral hind paws after sciatic nerve injury: significantly improved
  peripheral nerve regeneration after injury: significantly improves
[2]; ambroxol 120-150 mg/kg/day, ten days after injury
  correct muscle re-innervation: significantly improves
[5]; ambroxol 120-150 mg/kg/day per os, day 75 to 95, at 95 days of age
  innervation status (NMJ integrity): improved
[5]; ambroxol 120-150 mg/kg/day per os, day 75 to day 95
  delay of first loss of muscle strength (disease onset) compared to placebo: ~10 days
[5]; [10]
  improvement of total survival: more than 8 days
  muscle strength: significantly improved
